Drawing on ChEMBL document CHEMBL1255316, “A peptide with a ProGln C terminus in the human saliva peptidome exerts bactericidal activity against Propionibacterium acnes” (Antimicrob Agents Chemother, 2008), this text covers Activity for 2 compounds.

In experiment [1] the test system is Cell membrane. Kind of experiment: Binding affinity to membrane of Propionibacterium acnes ATCC 6919 at 10 uM after 1 hr by fluorescence microscopy under anaerobic condition. In kind it is functional. The note with it: Cutibacterium acnes, Plasma membrane.
Experiment [2] deals with Cutibacterium acnes. Briefly: Antibacterial activity against Propionibacterium acnes assessed as attenuation of colonization at 10 uM incubated with compound for 3 hrs measured after 2 days. In kind it is functional, organism-based.
In the next experiment the test system is Porphyromonas gingivalis. Kind of experiment: Binding affinity to membrane of Porphyromonas gingivalis ATCC 33277 at 10 uM after 1 hr by fluorescence microscopy under anaerobic condition. In kind it is functional.
Experiment [3] has as its system Cutibacterium acnes. Briefly: Antibacterial activity against Propionibacterium acnes assessed as attenuation of colonization at 100 uM incubated with compound for 3 hrs measured after 2 days. In kind it is functional, organism-based.
In experiment [4] the test system is Cutibacterium acnes. Briefly: Antibacterial activity against Propionibacterium acnes assessed as attenuation of colonization at 1 uM incubated with compound for 3 hrs measured after 2 days. In kind it is functional, organism-based.
The subject of experiment [5] is Cell membrane. Kind of experiment: Binding affinity to membrane of Propionibacterium acnes ATCC 6919 at 1 uM after 1 hr by fluorescence microscopy under anaerobic condition. As to conditions: Cutibacterium acnes, Plasma membrane. In kind it is functional.

Activity calls are given as the source filed them. The calls are words filed in the database; no cut-off is given here. Residues, ends and D or L forms follow the SMILES beside them.

As to `N=C(N)NCCC[C@H](NC(=O)CNC(=O)CNC(=O)[C@H](CCC(N)=O)NC(=O)[C@@H]1CCCN1C(=O)[C@@H]1CCCN1C(=O)[C@@H]1CCCN1C(=O)CN)C(=O)N1CCC[C@H]1C(=O)N[C@@H](CCC(N)=O)C(=O)O` (H-GPPPQGGRPQ-OH), the result in the experiment with Cell membrane [1], in the experiment with Cutibacterium acnes [2], with Cutibacterium acnes [3], in the experiment on Cutibacterium acnes [4] and with Cell membrane [5] was Active. In the experiment on Porphyromonas gingivalis, the outcome was inactive.

For the compound `N=C(N)NCCC[C@H](NC(=O)[C@H](CCCCN)NC(=O)CNC(=O)[C@@H](N)CS)C(=O)N[C@@H](CCCCN)C(=O)O` (H-CGKRK-OH), in the experiment with Cell membrane [1], the outcome was inactive.
